Article PMC11172862, “Mechanistic and Structural Insights on Difluoromethyl-1,3,4-oxadiazole Inhibitors of HDAC6” (International Journal of Molecular Sciences, 2024)
Like-named read-outs stand apart in the source and are kept apart here.

What was measured:
[1] = biological target: T1, human HDAC6 (Homo sapiens, UniProt Q9UBN7); assay: Fluorometric HDAC activity assay (Fluor de Lys Green), human full-length HDAC6; assay type: biochemical; conditions: for IC50: human full-length HDAC6, 25 °C, 3 µM Fluor de Lys Green, read-out: HDACs IC50, HDAC6
T1 construct: purchased BPS Bioscience 50006
T1 sequence (Q9UBN7 1-1215): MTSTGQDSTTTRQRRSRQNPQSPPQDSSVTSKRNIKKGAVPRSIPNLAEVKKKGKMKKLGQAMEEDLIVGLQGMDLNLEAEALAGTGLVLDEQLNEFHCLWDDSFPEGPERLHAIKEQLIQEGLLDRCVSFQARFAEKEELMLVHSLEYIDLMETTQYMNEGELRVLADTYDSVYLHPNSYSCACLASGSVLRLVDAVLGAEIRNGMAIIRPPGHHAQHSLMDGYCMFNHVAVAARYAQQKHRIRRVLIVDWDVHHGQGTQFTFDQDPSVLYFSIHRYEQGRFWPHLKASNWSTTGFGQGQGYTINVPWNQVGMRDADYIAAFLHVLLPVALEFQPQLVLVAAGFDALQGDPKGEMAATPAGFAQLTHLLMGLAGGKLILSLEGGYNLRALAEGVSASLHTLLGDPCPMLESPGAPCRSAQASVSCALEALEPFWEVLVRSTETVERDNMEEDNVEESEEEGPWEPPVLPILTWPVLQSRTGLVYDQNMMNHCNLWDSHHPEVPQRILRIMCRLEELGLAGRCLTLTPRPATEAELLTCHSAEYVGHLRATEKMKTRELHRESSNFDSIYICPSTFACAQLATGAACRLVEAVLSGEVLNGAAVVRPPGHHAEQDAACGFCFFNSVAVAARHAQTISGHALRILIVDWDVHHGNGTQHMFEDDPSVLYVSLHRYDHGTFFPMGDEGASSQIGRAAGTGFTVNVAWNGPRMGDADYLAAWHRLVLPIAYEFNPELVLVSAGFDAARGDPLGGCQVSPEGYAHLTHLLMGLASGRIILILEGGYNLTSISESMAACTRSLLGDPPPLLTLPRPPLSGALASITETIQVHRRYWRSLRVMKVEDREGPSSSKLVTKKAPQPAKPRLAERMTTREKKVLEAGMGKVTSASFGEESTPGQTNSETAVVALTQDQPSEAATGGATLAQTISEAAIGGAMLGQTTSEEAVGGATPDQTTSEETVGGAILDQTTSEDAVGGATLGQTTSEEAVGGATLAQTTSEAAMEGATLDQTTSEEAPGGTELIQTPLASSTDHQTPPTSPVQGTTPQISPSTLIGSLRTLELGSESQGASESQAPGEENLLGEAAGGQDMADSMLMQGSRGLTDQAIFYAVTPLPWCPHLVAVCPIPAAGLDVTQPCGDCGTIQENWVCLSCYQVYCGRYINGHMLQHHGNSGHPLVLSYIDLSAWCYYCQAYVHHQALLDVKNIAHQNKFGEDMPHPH
Experimental: (§1) Optimized fluorometric enzymatic assays were used as previously reported (5, 6). Briefly, the time-course of the reaction was monitored at 25 °C in HDAC assay buffer [25 mM Tris/HCl, pH 8.0, 130 mM NaCl, 0.05% Tween-20, 10% Glycerol, 1 mg/mL bovine serum albumin (BSA), 0.5 mM tris(2-carboxyethyl)phosphine (TCEP) and 1% DMSO]. Human HDAC1 (Catalog 50051, BPS Bioscience, San Diego, CA, USA), human HDAC6 (Catalog 50006, BPS Bioscience, San Diego, CA, USA) and the second catalytic domain of zebrafish HDAC6 (zHDAC6-CD2) were used at catalytic concentrations of 710 pM, 62.5-125 pM and 0.12 nM, respectively. The Fluor de Lys Green substrate (Enzo Life Sciences, Farmingdale, New York, USA) was included at a concentration close to the Km value, 3 µM for HDAC6 forms and 25 µM for HDAC1. For fast binding inhibitors, the initial velocity (vo) was calculated as (∆F/min) from the slope of the straight line fitting the data points. In the case […]
velocity (vi), the steady-state velocity at long reaction times (vs), and the apparent first-order rate constant (kobs). In Eq 1, P is the product concentration, expressed as fluorescence intensity and t is the reaction time (in minutes) (7). All progress curves are generated by using GraphPad Prism software (version 10.2.2, La Jolla, CA, USA). For IC50 determination, vo for fast-on inhibitors or vs for slow-on compounds were used to calculate the inhibition, as percentage with respect to the value […]
(§2) obtained in the absence of inhibitor. Such inhibition data were fitted in the GraphPad Prism software (version 10.2.2, La Jolla, CA, USA) using nonlinear regression analysis.
(§3) Eq. 1 P = v௦ ∙t + (vi − vs )[1 − exp(−kobs ∙t)] / kobs
(§4) In Eq. 1, P is the product concentration, expressed as fluorescence intensity, and t is the reaction time (in minutes) (7). For the determination of IC50 values, vo for fast-on inhibitors or vs for slow-on compounds were used to calculate the inhibition, as percentage with respect to the value obtained in the absence of inhibitor. Such inhibition data were fitted in GraphPad Prism software (version 10.2.2, La Jolla, CA, USA) using nonlinear regression analysis. […]
(§5) kobs values on inhibitor concentration was used to determine the mechanism of inhibition. “One-step” or a “two-step” (or “induced-fit) processes are the most common mechanisms of slow binding inhibition (Figure S2) and the resulting “kobs plots” should be linear for mechanism A and hyperbolic […]
to equation 2, assuming the validity of mechanism B, where Ki is the dissociation constant of the […]

[2] = biological target: T2, second catalytic domain of zebrafish HDAC6 (zHDAC6-CD2) (Danio rerio, UniProt F8W4B7); assay: Fluorometric HDAC activity assay (Fluor de Lys Green), zHDAC6-CD2; assay type: biochemical; conditions: for IC50: 25 °C, 3 µM Fluor de Lys Green, read-out: HDACs IC50, zHDAC6-CD2
T2 construct: 8xHis-MBP (TEV-cleavable) (N, cleaved yes); made in house; host or cells: E. coli
T2 sequence (F8W4B7 440-798): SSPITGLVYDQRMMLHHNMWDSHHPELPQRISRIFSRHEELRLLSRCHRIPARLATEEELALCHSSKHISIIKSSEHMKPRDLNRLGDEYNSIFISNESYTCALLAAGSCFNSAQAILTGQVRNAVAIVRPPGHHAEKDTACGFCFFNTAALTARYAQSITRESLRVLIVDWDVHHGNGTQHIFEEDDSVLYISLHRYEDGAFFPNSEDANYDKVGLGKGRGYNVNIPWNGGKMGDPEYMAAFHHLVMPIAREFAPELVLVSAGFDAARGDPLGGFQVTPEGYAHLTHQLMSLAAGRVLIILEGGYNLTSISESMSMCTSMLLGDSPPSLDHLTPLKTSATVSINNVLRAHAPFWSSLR
Experimental: as §1
velocity (vi), the steady-state velocity at long reaction times (vs), and the apparent first-order rate constant (kobs). In Eq 1, P is the product concentration, expressed as fluorescence intensity and t is the reaction time (in minutes) (7). All progress curves are generated by using GraphPad Prism software (version 10.2.2, La Jolla, CA, USA). For IC50 determination, vo for fast-on inhibitors or vs for slow-on compounds were used to calculate the inhibition, as percentage with respect to the value
(1 picture or pasted object on this page, not shown here) […]
as §2, §3, §4, §5
to equation 2, assuming the validity of mechanism B, where Ki is the dissociation constant of the initial EI complex, whereas k2 and k-2 are the rate constants describing the formation of the tight EI* complex. IC50 reflects the dissociation constant of the EI* complex (Ki*). […]
Samples were kept frozen at -80 °C until the LC-HRMS analysis. The experiment was performed in […]
(ITF6715, ITF7738) and hydrazide (ITF6712, ITF7739) derivatives in the samples was performed with respect to calibration curves obtained with varying concentrations of each compound. Raw data were then imported into GraphPad Prism (version 10.2.2, La Jolla, CA, USA) to generate Figure 4.
The LC-HRMS analysis was carried out using a Vanquish Flex UHPLC (Thermo Fisher Scientific, Waltham, Massachusetts, USA) and a high-resolution mass spectrometer Orbitrap QExactive Focus (Thermo Fisher Scientific, Waltham, Massachusetts, USA), equipped with a Heated Electrospray Ionization, operated in positive mode. A Full Scan analysis was set in the m/z range 50-500 amu. A XSelect HSS T3 50x2.1 mm, 2.5 µm chromatographic column (Waters, Milford, Massachusetts, USA) was used. Mobile phase A consisted of 0.1% formic acid in water and mobile phase B in 0.1% formic acid in acetonitrile. The flow rate was set to 0.5 mL/min, with a gradient program from 3 to 20% B in 3 minutes. The software Chromeleon CDS (version 7.3.2, Thermo Fisher Scientific, Waltham, Massachusetts, USA) was used for acquisition, processing, and signal integration. […]

[3] = biological target: T3, Human HDAC1 (Homo sapiens, UniProt Q13547); assay: Fluorometric HDAC activity assay (Fluor de Lys Green), human HDAC1; assay type: biochemical; conditions: 25 °C, 25 µM Fluor de Lys Green; read-out: HDACs IC50, HDAC1
T3 construct: purchased BPS Bioscience 50051
Experimental: as §1
velocity (vi), the steady-state velocity at long reaction times (vs), and the apparent first-order rate constant (kobs). In Eq 1, P is the product concentration, expressed as fluorescence intensity and t is the reaction time (in minutes) (7). […]
In Eq. 1, P is the product concentration, expressed as fluorescence intensity, and t is the reaction time (in minutes) (7). […]

[4] = biological target: T4, zHDAC6-CD2 (Danio rerio, UniProt F8W4B7); assay: LC-MS time course of DFMO hydrolysis by zHDAC6-CD2; assay type: biochemical, zebrafish; conditions: absence of competitor
T4 construct: 8xHis-MBP (TEV-cleavable) (N, cleaved yes); made in house; host or cells: E. coli
T4 sequence (F8W4B7 440-798): T2 sequence (F8W4B7 440-798)
Experimental: In order to achieve a fast and sufficient conversion of DFMO to DFAcH before the addition of the competitor, and to minimize its effect on the first hydrolysis step, ITF3756 was added after a very short DFMO–enzyme pre-incubation (1 min). Subsequently, at each time point (Figure 4), an aliquot of the reaction mixture was mixed with acetonitrile to unfold the protein and quench the enzymatic activity. Each aliquot was analyzed by liquid LC-MS to determine the compound concentrations.
Experiments like those shown in panel A and C were carried out in the presence of 100 μM ITF3756, which was added after 1 min of ITF5924-enzyme (B) or ITF7209-enzyme (D) pre-incubation. All the experiments were carried out in triplicate. The lines simply join the average values of the experimental points. The incomplete recovery could be attributed to the relatively high enzyme concentration, possibly resulting in coprecipitation phenomena upon the addition of acetonitrile. […]
as §2, §3, §4, §5

[5] = biological target: T3, Human HDAC1; parameters: method as in PMID 36528061; conditions: included for comparison; ref [22]; read-out: HDACs IC50, HDAC1; cited from earlier work
[6] = biological target: T2, second catalytic domain of zebrafish HDAC6 (zHDAC6-CD2); parameters: method as in PMID 36528061; conditions: included for comparison; ref [22]; read-out: HDACs IC50, zHDAC6-CD2; cited from earlier work
[7] = biological target: T1, human HDAC6; parameters: method as in PMID 36528061; conditions: included for comparison; ref [22]; read-out: HDACs IC50, HDAC6; cited from earlier work
[8] = 5 µM DFMO, 5 µM zHDAC6-CD2, 25 °C

T3 sequence (Q13547 whole entry): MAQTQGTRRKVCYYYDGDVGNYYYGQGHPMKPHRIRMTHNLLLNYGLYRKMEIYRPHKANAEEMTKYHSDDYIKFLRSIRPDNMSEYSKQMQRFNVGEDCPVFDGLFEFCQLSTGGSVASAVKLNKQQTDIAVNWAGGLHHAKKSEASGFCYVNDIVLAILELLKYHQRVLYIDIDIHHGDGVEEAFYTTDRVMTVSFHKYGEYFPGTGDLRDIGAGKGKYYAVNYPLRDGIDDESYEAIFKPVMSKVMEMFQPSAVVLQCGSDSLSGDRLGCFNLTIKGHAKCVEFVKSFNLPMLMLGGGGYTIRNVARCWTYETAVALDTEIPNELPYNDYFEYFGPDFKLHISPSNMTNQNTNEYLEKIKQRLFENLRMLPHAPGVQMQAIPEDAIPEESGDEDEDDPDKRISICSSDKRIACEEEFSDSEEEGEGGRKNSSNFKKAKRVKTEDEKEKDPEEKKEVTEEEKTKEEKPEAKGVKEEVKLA

IC50 [1] | IC50 [2] | IC50 [3] | Structure (SMILES) | IC50 [5] | IC50 [6] | IC50 [7] | also measured
> 100000 nM | 72000 nM | > 100000 nM | CC(C)(C)c1cn(Cc2ccc(C(=O)NNC(=O)C(F)F)s2)nn1 [ITF7738] |  |  |  | 
5100 nM | 1000 nM | > 100000 nM | CC(C)(C)c1cn(Cc2ccc(C(=O)NN)s2)nn1 [ITF7739] |  |  |  | 
 |  |  | O=C(NNC(=O)C(F)F)c1ccc(Cn2cc(-c3ccc(NC4=NCCN4)cc3)nn2)cc1 [ITF6715] | > 100000 nM | 2300 nM | 1600 nM | 
 |  |  | FC(F)c1nnc(-c2ccc(Cn3cc(-c4ccc(NC5=NCCN5)cc4)nn3)cc2)o1 [ITF5924] | > 100000 nM | 7.8 ± 0.4 nM | 7.7 ± 0.3 nM | Time after which DFMO substantially disappeared [4, 8]: 10 min
 |  |  | NNC(=O)c1ccc(Cn2cc(-c3ccc(NC4=NCCN4)cc3)nn2)cc1 [ITF6712] | > 100000 nM |  | 330 nM | Amount of hydrazide product detectable ([4]; hydrolysis of 5 µM ITF5924 by 5 µM zHDAC6-CD2, 25 °C): 13%

Structure (SMILES) | IC50 [1] | IC50 [2] | IC50 [3] | IC50 [5] | IC50 [6] | IC50 [7] | also measured
CC(C)(C)c1cn(Cc2ccc(-c3nnc(C(F)F)o3)s2)nn1 [ITF7209] |  | 6.7 ± 0.4 nM |  |  |  |  | k2 (rate constant, formation of the tight EI* complex) ([1]; human HDAC6, fit of kobs to Eq. 2): 0.52 ± 0.01 min⁻¹; Mode of inhibition ([1]; human full-length HDAC6, progress curves): slow binding inhibitor; Mode of inhibition ([2]; zHDAC6-CD2, progress curves): slow binding inhibitor; k2 (rate constant, formation of the tight EI* complex) ([2]; zHDAC6-CD2, fit of kobs to Eq. 2): 0.86 ± 0.02 min⁻¹; Ki ([2]; zHDAC6-CD2, fit of kobs to Eq. 2, induced-fit model, read-out: Ki (dissociation constant of the initial EI complex)): 980 ± 40 nM; Rate of DFMO consumption compared to ITF5924 [4, 8]: slower rate of DFMO consumption
